This passage reports IC50 results from US8163771B2, “11 β-HSD1 modulators” (Exelixis, Inc., priority 2008, dated 2012).

Some results are limits rather than exact numbers.

The target in this test is T1, recombinant human 11 β-HSD1 (Homo sapiens, UniProt P28845).
T1 construct: made in house; host or cells: E. coli
T1 sequence (P28845 whole entry): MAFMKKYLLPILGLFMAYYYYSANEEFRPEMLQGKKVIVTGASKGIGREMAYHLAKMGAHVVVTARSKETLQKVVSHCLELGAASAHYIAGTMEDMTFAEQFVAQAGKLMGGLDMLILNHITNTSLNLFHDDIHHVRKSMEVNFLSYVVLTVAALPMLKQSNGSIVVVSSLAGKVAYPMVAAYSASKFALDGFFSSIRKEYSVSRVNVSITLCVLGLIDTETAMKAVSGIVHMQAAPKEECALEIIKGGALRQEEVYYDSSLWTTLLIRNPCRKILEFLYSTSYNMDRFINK
The test is described as follows: 11 β-HSD1 SPA Assay (Scintillation Proximity Assay). The class given is biochemical. The method, boiled down:
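Scintillation proximity read-out of cortisol formed from 40 nM [3H]cortisone by purified recombinant human enzyme (30-100 nM, E. coli) with 1 mM NADPH, pH7.4, 2 hours at room temperature; beads with cortisol antibody and glycyrrhetinic acid stop the reaction, read next day. IC50 derived from inhibition normalised to background and maximal wells.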
Broadly, the IC50 is the concentration that gives 50% inhibition. Regarding `CC(C)(Oc1cc(F)c(F)cc1Cl)C(=O)N[C@H]1C[C@H]2CC[C@@H](C1)N2c1ccc(S(N)(=O)=O)cn1` [Example 262, N-{8-[5-(aminosulfonyl)pyridin-2-yl]-8-azabicyclo[3.2.1]oct-3-endo-yl}-2-[(2-chloro-4,5-difluorophenyl)oxy]-2-methylpropanamide], the IC50 was < 200 nM.

Consider `CC(C)(Oc1ccc(Cl)cc1OCCn1ccnc1)C(=O)N[C@H]1C[C@H]2CC[C@@H](C1)N2c1ccc(C(=O)NCC(F)(F)F)cn1` [Example 387, 6-{3-endo-[(2-{4-chloro-2-[2-(1H-imidazol-1-yl)ethoxy]phenoxy}-2-methylpropanoyl)amino]-8-azabicyclo[3.2.1]oct-8-yl}-N-(2,2,2-trifluoroethyl)pyridine-3-carboxamide], for which the 50% inhibitory concentration (IC50) is < 2000 nM.

In the case of `NC(=O)c1ccc(N2[C@@H]3CC[C@H]2C[C@@H](NC(=O)C2(c4ccc(F)c(F)c4)CC2)C3)nc1` [Example 141, 6-[3-endo-({[1-(3,4-difluorophenyl)cyclopropyl]carbonyl}amino)-8-azabicyclo[3.2.1]oct-8-yl]pyridine-3-carboxamide], the IC50 was < 200 nM.

Regarding `CC(C)(C(=O)N[C@H]1C[C@H]2CC[C@@H](C1)N2c1ccc(C(N)=O)cn1)S(=O)(=O)c1ccc(Cl)cc1Cl` [Example 274, 6-[3-endo-({2-[(2,4-dichlorophenyl)sulfonyl]-2-methylpropanoyl}amino)-8-azabicyclo[3.2.1]oct-8-yl]pyridine-3-carboxamide], the IC50 was < 200 nM.

Turning to `CC(C)(Oc1ccc(Cl)cc1)C(=O)N[C@H]1C[C@H]2CC[C@@H](C1)N2c1ccc(C#N)cn1` [Example 32, 2-[(4-chlorophenyl)oxy]-N-[8-(5-cyanopyridin-2-yl)-8-azabicyclo[3.2.1]oct-3-endo-yl]-2-methylpropanamide], the IC50 was < 200 nM.

With `CC(C)(Oc1ccc(C(F)(F)F)cc1Cl)C(=O)N[C@H]1C[C@H]2CC[C@@H](C1)N2c1ccc(C(N)=O)cn1` [Example 183, 6-{3-endo-[(2-{[2-chloro-4-(trifluoromethyl)phenyl]oxy}-2-methylpropanoyl)amino]-8-azabicyclo[3.2.1]oct-8-yl}pyridine-3-carboxamide], the IC50 is < 200 nM.

Take `COc1cc(F)ccc1OC(C)(C)C(=O)N[C@H]1C[C@H]2CC[C@@H](C1)N2c1ccc(S(C)(=O)=O)cn1` [Example 220]: the IC50 was < 200 nM.

As for `CC(C)(O)CNC(=O)c1ccc(N2[C@@H]3CC[C@H]2C[C@@H](NC(=O)C(C)(C)Oc2ccc(Cl)cc2Cl)C3)nc1` [Example 396, 6-(3-endo-{[2-(2,4-dichlorophenoxy)-2-methylpropanoyl]amino}-8-azabicyclo[3.2.1]oct-8-yl)-n-(2-hydroxy-2-methylpropyl)pyridine-3-carboxamide], the IC50 is < 200 nM.

As for `CC(C)(Oc1ccc(Cl)cc1C(F)F)C(=O)N[C@H]1C[C@H]2CC[C@@H](C1)N2c1ccc(S(C)(=O)=O)cn1` [Example 365, 2-[4-chloro-2-(difluoromethyl)phenoxy]-2-methyl-N-{8-[5-(methylsulfonyl)pyridin-2-yl]-8-azabicyclo[3.2.1]oct-3-endo-yl}propanamide], the IC50 was < 200 nM.

For the molecule `CC(C)(Oc1ccc(Cl)cc1CO)C(=O)N[C@H]1C[C@H]2CC[C@@H](C1)N2c1ccc(C(=O)NCC(F)(F)F)cn1` [Example 376, 6-[3-endo-({2-[4-chloro-2-(hydroxymethyl)phenoxy]-2-methylpropanoyl}amino)-8-azabicyclo[3.2.1]oct-8-yl]-N-(2,2,2-trifluoroethyl)pyridine-3-carboxamide], the IC50 is < 200 nM.

Take `Cc1ccc(OC(C)(C)C(=O)N[C@H]2C[C@H]3CC[C@@H](C2)N3c2ccc(S(N)(=O)=O)cn2)c(Cl)c1` [Example 213, N-{8-[5-(aminosulfonyl)pyridin-2-yl]-8-azabicyclo[3.2.1]oct-3-endo-yl}-2-[(2-chloro-4-methylphenyl)oxy]-2-methylpropanamide]: the 50% inhibitory concentration (IC50) was < 200 nM.

As for `CC(C)(Oc1cccc2[nH]ncc12)C(=O)N[C@H]1C[C@H]2CC[C@@H](C1)N2c1ccc(C(=O)NCC(F)(F)F)cn1` [Example 385, 6-(3-endo-{[2-(1H-indazol-4-yloxy)-2-methylpropanoyl]amino}-8-azabicyclo[3.2.1]oct-8-yl)-N-(2,2,2-trifluoroethyl)pyridine-3-carboxamide], the 50% inhibitory concentration (IC50) was < 200 nM.

Regarding `CC(C)NC(=O)c1ccc(N2[C@@H]3CC[C@H]2C[C@@H](NC(=O)C(C)(C)Oc2ccc(Cl)cc2Cl)C3)nc1` [Example 54, 6-[3-endo-({2-[(2,4-dichlorophenyl)oxy]-2-methylpropanoyl}amino)-8-azabicyclo[3.2.1]oct-8-yl]-N-(1-methylethyl)pyridine-3-carboxamide], the IC50 is < 200 nM.

In the case of `CC(C)(Oc1cc(F)c(F)cc1F)C(=O)N[C@H]1C[C@H]2CC[C@@H](C1)N2c1ccc(S(N)(=O)=O)cn1` [Example 216, N-{8-[5-(aminosulfonyl)pyridin-2-yl]-8-azabicyclo[3.2.1]oct-3-endo-yl}-2-methyl-2-[(2,4,5-trifluorophenyl)oxy]propanamide], the IC50 was < 200 nM.

With `CC(C)(Oc1ncc(Cl)cc1C(F)(F)F)C(=O)N[C@H]1C[C@H]2CC[C@@H](C1)N2c1ccc(C(=O)NCC(F)(F)F)cn1` [Example 273, 6-{3-endo-[(2-{[5-chloro-3-(trifluoromethyl)pyridin-2-yl]oxy}-2-methylpropanoyl)amino]-8-azabicyclo[3.2.1]oct-8-yl}-N-(2,2,2-trifluoroethyl)pyridine-3-carboxamide], the IC50 was < 200 nM.

For `CC(C)(Oc1cccc(Cl)c1)C(=O)N[C@H]1C[C@H]2CC[C@@H](C1)N2c1ccc(C(=O)NC2CC2)cn1` [Example 14, 6-[3-endo-({2-[(3-chlorophenyl)oxy]-2-methylpropanoyl}amino)-8-azabicyclo[3.2.1]oct-8-yl]-N-cyclopropylpyridine-3-carboxamide], the IC50 was < 200 nM.

For `CC(C)(Oc1c(Cl)cc(F)cc1C(F)(F)F)C(=O)N[C@H]1C[C@H]2CC[C@@H](C1)N2c1ccc(S(C)(=O)=O)cn1` [Example 179, 2-{[2-chloro-4-fluoro-6-(trifluoromethyl)phenyl]oxy}-2-methyl-N-{8-{5-(methylsulfonyl)pyridin-2-yl]-8-azabicyclo[3.2.1]oct-3-endo-yl}propanamide], the IC50 is < 200 nM.

On to `CC(C)(Oc1cc(F)c(F)cc1Cl)C(=O)N[C@H]1C[C@H]2CC[C@@H](C1)N2c1ccc(S(C)(=O)=O)cc1` [Example 225, 2-[(2-chloro-4,5-difluorophenyl)oxy]-2-methyl-N-{8-[4-(methylsulfonyl)phenyl]-8-azabicyclo[3.2.1]oct-3-endo-yl}propanamide], for which the IC50 was < 200 nM.

For the molecule `CC(C)(Oc1ccc(Cl)cc1-c1ccccc1)C(=O)N[C@H]1C[C@H]2CC[C@@H](C1)N2c1ccc(C(N)=O)cn1` [Example 322, 6-[3-endo-({2-[(5-chlorobiphenyl-2-yl)oxy]-2-methylpropanoyl}amino)-8-azabicyclo[3.2.1]oct-8-yl]pyridine-3-carboxamide], the IC50 was < 200 nM.

Take `CC(C)(Oc1ccc(Cl)c(Cl)c1)C(=O)N[C@H]1C[C@H]2CC[C@@H](C1)N2c1ccc(C(=O)NCC(F)(F)F)cn1` [Example 83, 6-[3-endo-({2-[(3,4-dichlorophenyl)oxy]-2-methylpropanoyl}amino)-8-azabicyclo[3.2.1]oct-8-yl]-N-(2,2,2-trifluoroethyl)pyridine-3-carboxamide]: the IC50 is < 200 nM.

Take `CC(C)(Oc1ccc(Cl)cc1C(F)F)C(=O)N[C@H]1C[C@H]2CC[C@@H](C1)N2c1ccc(C(=O)NC2(CO)CC2)cn1` [Example 403, 6-(3-endo-(2-(4-chloro-2-(difluoromethyl)phenoxy)-2-methylpropanamido)-8-azabicyclo[3.2.1]octan-8-yl)-N-(1-(hydroxymethyl)cyclopropyl) nicotinamide]: the IC50 is < 200 nM.

As to `CC(C)(Oc1cc(C(C)(C)O)c(Cl)cc1Cl)C(=O)N[C@H]1C[C@H]2CC[C@@H](C1)N2c1ccc(C(=O)NCC(F)(F)F)cn1` [Example 475, 6-[3-endo-({2-[2,4-dichloro-5-(2-hydroxypropan-2-yl)phenoxy]-2-methylpropanoyl}amino)-8-azabicyclo[3.2.1]oct-8-yl]-N-(2,2,2-trifluoroethyl)pyridine-3-carboxamide], the IC50 is < 200 nM.

For “N-(2,2-difluoroethyl)-6- [3-endo-({2-[2-fluoro-4- (2-hydroxypropan-2- yl)phenoxy]-2- methylpropanoyl}amino)- 8-azabicyclo[3.2.1]oct- 8-yl]pyridine-3- carboxamide [Example 305]”, the IC50 is < 200 nM.

As for `CC(C)(Oc1ncc(C(F)(F)F)cc1Cl)C(=O)N[C@H]1C[C@H]2CC[C@@H](C1)N2c1ccc(S(N)(=O)=O)cn1` [Example 246, N-{8-[5-(aminosulfonyl)pyridin-2-yl]-8-azabicyclo[3.2.1]oct-3-endo-yl}-2-{[3-chloro-5-(trifluoromethyl)pyridin-2-yl]oxy}-2-methylpropanamide], the IC50 was < 2000 nM.

Take `CC(C)(Oc1ccc(Cl)cc1)C(=O)N[C@H]1C[C@H]2CC[C@@H](C1)N2c1ccc(S(C)(=O)=O)cc1` [Example 203, 2-[(4-chlorophenyl)oxy]-2-methyl-N-{8-[4-(methylsulfonyl)phenyl]-8-azabicyclo[3.2.1]oct-3-endo-yl}propanamide]: the IC50 was < 2000 nM.

With `CC(C)(Oc1ccccc1C(F)(F)F)C(=O)N[C@H]1C[C@H]2CC[C@@H](C1)N2c1ccc(S(N)(=O)=O)cn1` [Example 256, N-{8-[5-(aminosulfonyl)pyridin-2-yl]-8-azabicyclo[3.2.1]oct-3-endo-yl}-2-methyl-2-{[2-(trifluoromethyl)phenyl]oxy}propanamide], the IC50 is < 200 nM.

As to `CC(C)(Oc1ccc(Cl)cn1)C(=O)N[C@H]1C[C@H]2CC[C@@H](C1)N2c1ccc(C(=O)NCC(F)(F)F)cn1` [Example 108, 6-[3-endo-({2-[(5-chloropyridin-2-yl)oxy]-2-methylpropanoyl}amino)-8-azabicycio[3.2.1]oct-8-yl]-N-(2,2,2-trifluoroethyl)pyridine-3-carboxamide], the IC50 was < 200 nM.
